Laboratory results taken from patent US4350691A, “Certain azabicyclocarboxamides and compositions containing same” (Beecham Group Limited, priority 1979, dated 1982).

Columns and labels:
Type in all cases: in vivo
dopamine receptor = test: Inhibition of Apomorphine Induced Climbing in the Mouse; conditions: for Activity % Inhibition: apomorphine induced climbing, apomorphine 1 mg/kg s.c., orally 30 min prior
Description: The compound prepared in Example 3 was tested for inhibition of apomorphine induced climbing behaviour in the mouse. This is indicative of dopamine receptor blockade in the central nervous system.
The test is based on that described by Protais, P., Constantin, J. and Schwartz, J. C. (1976), Psychopharmacology, 50, 1-6.
Apomorphine 1 mg/kg s.c. induces mice to climb the wall of a wire cage (inverted food hopper--11×7.5×18 cm high). Mice acclimatised in their home cages in groups of 5 are placed under the hoppers immediately after the injection of apomorphine 1 mg/kg s.c. At 10,20 and 30 minutes after injection climbing behaviour is scored. The mice are observed for 30 seconds and scored according to the position they spend the majority of time in, score 0--four paws on floor of cage; score 1--fore paws only on walls; score 2--all paws on wall of cage. The scores at all 3 times and for each mouse are summed and mice drug treated orally 30 min. prior to apomorphine compared to mice receiving apomorphine only. A saline only treated group is also included and any score, generally 5% of maximum taken into account.

gastric motility = test: Gastric Motility Testing in the Rat (reversal of the inhibition effect of 6,7-ADTN); conditions: conscious chronic gastric fistula rat; for reversal of the reduction of basal gastric motor activity by 6,7-ADTN: 10 minutes after 6,7-ADTN 1 mg/kg s.c.
Description: The compounds were tested for ability to reverse the inhibition effect of 6,7-ADTN on gastric motility recorded by an open tipped catheter in the conscious chronic gastric fistula rat. […] For subcutaneous testing the compounds were dissolved in water by the addition of tartaric acid (1/2 mole per mole of compound).

vomiting response = test: Anti-emetic Activity in the Dog (apomorphine HCl vomiting response); conditions: Canis lupus familiaris, 0.5 h; s.c., 30 minutes prior to apomorphine HCl 0.1 mg/kg subcutaneously; read-out: dose that totally inhibited the vomiting response
Description: Compounds were administered subcutaneously 30 minutes, or per os 2 hr, prior to administration of a standard dose of apomorphine HCl (0.1 mg/kg subcutaneously) and the vomiting response compared to that obtained when the same animals were dosed with apomorphine HCl and vehicle only.

COc1cc(N)c(Cl)cc1NC(=O)[C@@H]1C[C@H]2CC[C@@H](C1)N2Cc1ccc(Cl)cc1 [Compound 46, 5-amino-4-chloro-2-(8'-(4"-chlorobenzyl)-8'-azabicyclo [3.2.1]octane-3'β-carboxamido)anisole]
Activity % Inhibition (dopamine receptor; compound dose 10 mg/kg): 100%

COc1cc(N)c(Cl)cc1NC(=O)[C@@H]1C[C@H]2CC[C@@H](C1)N2Cc1ccc(C)cc1 [Compound 47, 5-amino-4-chloro-2-(8'-[4"-methylbenzyl]-8'-azabicyclo [3.2.1]octane-3'β-carboxamido)anisole]
Activity % Inhibition (dopamine receptor; compound dose 10 mg/kg): 100%

COc1cc(NC(C)=O)c(Cl)cc1NC(=O)[C@@H]1C[C@H]2CC[C@@H](C1)N2Cc1ccccc1 [Compound 62, 5-Acetamido-4-chloro-2-[8-benzyl-8-azabicyclo (3,2,1)acetone-3β-carboxamido]anisole]
Activity % Inhibition (dopamine receptor; compound dose 2 mg/kg): 95%

COc1cc(N)c(Cl)cc1NC(=O)[C@@H]1C[C@H]2CC[C@@H](C1)N2CC1CCCCC1 [Compound 55, 5-amino-4-chloro-2-(8'-cyclohexylmethyl-8'-azabicyclo [3.2.1]octane-3'β-carboxamido)anisole]
Activity % Inhibition (dopamine receptor; compound dose 50 mg/kg): 100%

COc1ccc(NC(=O)[C@@H]2C[C@H]3CC[C@@H](C2)N3Cc2ccccc2)c(OC)c1 [Compound 20, 3-methoxy-4-[8'-benzyl-8'-azabicyclo[3.2.1]octane-3β'-carboxamido]anisole]
Activity % Inhibition (dopamine receptor; compound dose 10 mg/kg): 100%

COc1cc(N)c(Cl)cc1NC(=O)[C@@H]1C[C@H]2CC[C@@H](C1)N2CCC(C)C [Compound 53, 5-amino-4-chloro-2-(8'-3"-methylbutyl-8'-azabicyclo [3.2.1]octane-3'β-carboxamido)anisole]
Activity % Inhibition (dopamine receptor; compound dose 10 mg/kg): 56%

COc1ccc(S(N)(=O)=O)cc1NC(=O)[C@@H]1C[C@H]2CC[C@@H](C1)N2Cc1ccccc1 [Compound 25, 4-aminosulphonyl-2-(8'benzyl-8'-azabicyclo[3.2.1]octane-3'β-carboxamido)anisole]
reversal of the reduction of basal gastric motor activity by 6,7-ADTN (gastric motility; compound 5 mg/kg s.c.): reversed

COc1ccc(CN2[C@@H]3CC[C@H]2C[C@H](C(=O)Nc2cc(Cl)c(N)cc2OC)C3)cc1 [Compound 48, 5-amino-4-chloro-2-(8'-[4"-methoxybenzyl]-8'-azabicyclo [3.2.1]octane-3'β-carboxamido)anisole]
Activity % Inhibition (dopamine receptor; compound dose 10 mg/kg): 100%

COc1ccc(S(C)(=O)=O)cc1NC(=O)[C@@H]1C[C@H]2CC[C@@H](C1)N2Cc1ccccc1 [Compound 24, 4-methylsulphonyl-2-(8'-benzyl-8'-azabicyclo[3,2,1]octane-3'β-carboxamido)anisole]
reversal of the reduction of basal gastric motor activity by 6,7-ADTN (gastric motility; compound 1 mg/kg s.c.): reversed
ED100 (vomiting response): 0.1 mg/kg

COc1cc(N)c(Cl)cc1NC(=O)[C@@H]1C[C@H]2CC[C@@H](C1)N2Cc1ccc(Cl)c(Cl)c1 [Compound 45, 5-amino-4-chloro-2-(8'-[3",4"-dichlorobenzyl]-8'-azabicyclo[3.2.1]octane-3β'-carboxamido)anisole]
Activity % Inhibition (dopamine receptor; compound dose 10 mg/kg): 100%

COc1cc(N)c(Cl)cc1NC(=O)[C@@H]1C[C@H]2CC[C@@H](C1)N2Cc1ccccc1 [Compound 44, 5-Amino-4-chloro-2-[8'-benzyl-8'-azabicyclo-[3.2.1]octane-3'β-carboxamido]-anisole]
Activity % Inhibition (dopamine receptor; compound dose 1 mg/kg): 100%
ED50 (dopamine receptor; inhibition of apomorphine induced climbing, orally 30 min prior to apomorphine 1 mg/kg s.c.): 0.05 mg/kg

NC1CCc2cc(O)c(O)cc2C1 (stereo not drawn) [6,7-ADTN, reference compound]
basal gastric motor activity (gastric motility; 6,7-ADTN 1 mg/kg s.c.): reduced basal gastric motor activity

COc1ccc(OC)c(NC(=O)[C@@H]2C[C@H]3CC[C@@H](C2)N3Cc2ccccc2)c1 [Compound 21, 4-methoxy-2-(8'-benzyl-8'-azabicyclo[3.2.1]octane-3β-carboxamido)anisole]
Activity % Inhibition (dopamine receptor; compound dose 2 mg/kg): 60%
